Results published in US7637980B2, “Method of increasing photosynthesis in plants comprising an exposure thereof to lipochitooligosaccharides and compositions therefor” (McGill University, priority 1999, dated 2009).

How the values were obtained:
Format in all cases: in vivo
Grapes (cv De Chaunac) = assay: Photosynthesis of field-grown grape after LCO spray
Procedure: (§1) These experiments were conducted at the horticultural research facility of McGill University, Ste-Anne-de-Bellevue, Quebec, Canada during July 2000. LCO of different concentrations (10^−8, and 10^−10M) were prepared as described above. Branches of apple (cv Empire) and Grapes (cv De Chaunac) were sprayed with LCO and the photosynthesis was observed every 24 h for five days with a Li-Cor 6400 portable photosynthesis system (Li-Cor Inc., USA). Each treatment was applied to three branches from the same plant. Care was taken to ensure that the branches were on the same level and orientation. Part of each branch was sprayed with LCO and the remaining part served as a control. The control portion of the branch was sprayed with distilled water containing the same amount of Tween 20 as the LCO treatment solution. Observations were taken on 15 leaves per replicate for each treatment. For both apple and grape the entire procedure was repeated twice on two different plants.

apple (cv Empire) = assay: Photosynthesis of field-grown apple after LCO spray
Procedure: as §1

[1] = test system: soybean (cv OAC Bayfield); assay: Photosynthesis of soybean under field conditions (1999)
Procedure: The soybean experiment was conducted at the Lods Agronomy Research Centre, McGill University, Macdonald Campus, Ste-Anne-de-Bellevue, Quebec, Canada during the period June to September, 1999. A randomized complete block design with three blocks was followed. The plot size was 2×4 m with a row to row spacing of 25 cm and 10 cm between plants within a row. Seeds of soybean (cv OAC Bayfield), treated with commercial Bradyrhizobium japonicum inoculant (Bios Agriculture Inc., Quebec, Canada) at the rate of 3 g per kilogram of seed, were hand planted.
At 25 days after planting twenty plants in each plot were randomly marked and sprayed until dripping with LCO solutions (10^−6, 10^−8 and 10^−10M) containing 0.02% Tween 20 with a hand sprayer. The plants on either side, within the row, of the marked plants were also sprayed. A second spray was carried out at flowering stage and a third spray at pod filling.
(§2) As with the indoor experiments, photosynthetic readings were taken every day for five days after the application of LCO. For soybean additional developmental and agronomic data were collected. The first harvest was conducted at 25 days after the first spray treatment. Five plants were harvested from each plot and the following growth variables were analyzed: plant height, number of branches, number of leaves, leaf area, number of flower clusters, number of pods, number of nodules, dry weights of leaves, stem and roots. The final harvest was conducted after physiological maturity of the plants (Fehr et al., 1971); at this time the remaining fifteen treated plants from each plot were harvested and data on number of branches, number of pods, number of seeds and grain yield per plant was collected.

corn (Pioneer 3921) = assay: Photosynthesis of field-grown corn after LCO spray
Procedure: as §2, with “Single row corn plots (Pioneer 3921) were established during the 1999 and 2000 cropping seasons. The rows were 75 cm apart and their was an average of 20 cm between plants. The plants were sprayed at 40 DAP. Photosynthetic rates were recorded each day for 5 days after spray application. However, multiple sprays of LCO on corn were not possible due to limitations of LCO supplies, and because only single row plots were used yields were not recorded. As” for “As”

[2] = test system: melon (Cucumis melo cv Nova); assay: Photosynthesis of melon after LCO spray, greenhouse
Procedure: Seeds of rice (Oryza sativa cv Cypress), canola (Brassica napus cv Springfield), corn (Zea mays cv Pioneer 3921) and melon (Cucumis melo cv Nova) were surface sterilized with 2% sodium hypochlorite for 3-4 min, washed with several changes of sterile distilled water and planted in plastic pots (15 cm dia) containing promix (Premier Brands Inc., New Rochelle, N.Y., USA).
Concentrations of LCO (10^−6 M-10^−12 M) were made with distilled water containing 0.02% Tween 20. A control treatment, containing 0.02% Tween 20, but no LCO was also applied. Since the rates of growth and development differed among the plant species used in the experiments, spray treatment was conducted at different times after planting In general, the spray was applied when the plants were big enough to allow easy measurements of leaf photosynthetic rates. The following are the ages of the plants when the sprays were conducted: soybean 21 days after planting (DAP), corn 25 DAP, rice 45 DAP, melon (35 DAP) and canola 30 DAP. The plants were sprayed with LCO solutions until dripping. The sprays were applied with an atomizer (Nalgene, USA). Each plant required 2-3 mL of spray solution. Each treatment was replicated at least five times and organized on the green house bench in a randomized complete block design. Each experiment (with each crop species) was repeated at least twice.
Photosynthesis was recorded every 24 h using a Li-Cor 6400 portable photosynthesis system (Li-Cor Inc., Lincoln, Neb., USA) for 6 days. In the case of soybean the photosynthesis in the second nodal leaf from the top was recorded while in the other species used in the photosynthetic rate was measured for the top-most fully expanded leaf. Soybean plants were harvested after seven days of LCO treatment and dried at 80° C. for 48 h. Data were analyzed with the Statistical Analysis System (SAS Inc., N.C., USA). Percent increase in photosynthesis over the control was calculated.

soybean = assay: Foliar spray of LCO on yield of soybean (2000 cropping season); details: for Seed yield/plant / Seed yield: 0% seed moisture; for Seed yield: assuming 500,000 plants per ha
Text: LCO 10^−6 M improved the yield by about 60%. The increase in yield was due to the increase in the number of pods/plant. The 100-seed weight was not increased by LCO spray during the 2000 field season. Also of note, the LCO application in the field experiments in year 2000 were by spraying whole plots, as opposed to individual plants (1999). Thus, the LCO effects described in the present invention are also observable when using large production application methods.

## Nod Bj V (C18:1, MeFeu)
Grapes (cv De Chaunac); 10^−10 M, three days after treatment
  stomatal conductance: increase
Grapes (cv De Chaunac); greatest three days after treatment with 10^−10 M
  photosynthetic rates: increases
Apple (cv Empire)
  Ci: without any effect
  stomatal conductance: increases
  transpiration: increased
Apple (cv Empire); 10^−8 M LCO, five days after treatment
  photosynthetic rate: 14.1 μmol CO2 m^−2s^−1
[1]
  stomatal conductance: increases
  transpiration: increased
[1]; 10^−6 M, day three
  photosynthetic rate: 24 µmol m^−2 s^−1
Corn (Pioneer 3921); field grown plants
  Ci: no such effect
Corn (Pioneer 3921); field, two days after treatment application
  increase of photosynthetic rate, maximum: approximately 10%
[2]
  intercellular CO2 concentration: unaffected
  stomatal conductance: increases
  transpiration: increases
[2]; in general
  increase in photosynthesis: 10-20%
soybean; LCO 10^−6 M
  100-seed weight: 17.4 g
  Pod weight/plant: 31.4 g
  Pods/plant: 46.8
  Seeds/plant: 118.0
  Seed yield/plant: 21.0 g
  Seed yield: 10.5 t/ha
soybean; LCO 10^−8 M
  100-seed weight: 17.8 g
  Pod weight/plant: 24.1 g
  Pods/plant: 39.1
  Seeds/plant: 96.4
  Seed yield/plant: 16.2 g
  Seed yield: 8.1 t/ha
soybean; LCO 10^−10 M
  100-seed weight: 18.1 g
  Pod weight/plant: 29.1 g
  Pods/plant: 47.7
  Seeds/plant: 117.7
  Seed yield/plant: 21.8 g
  Seed yield: 10.9 t/ha
soybean; LCO spray, 2000 field season
  100-seed weight: not increased
